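Grown in 96-well plates, cells were treated for 48 hours with each compound at five concentrations. Insufficient inhibition: endpoint recorded as highest concentration tested. GI50: concentration for 50% inhibition of growth.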 Activity calls are given as the source filed them. Rule as the data show it: active = GI50 up to about 1.1 µM and inactive = higher.
Tests used:
Test in all cases: DTP human tumour cell line panel, 48 h
[1] = tested on: NCI/ADR-RES
[2] = tested on: HL-60
[3] = tested on: HCT-116
[4] = tested on: SK-MEL-2
[5] = tested on: RXF 393
[6] = tested on: KM12
[7] = tested on: OVCAR-8
[8] = tested on: DMS-114
[9] = tested on: ACHN
[10] = tested on: NCI-H522
[11] = tested on: 786-0
[12] = tested on: U-251
[13] = tested on: MCF7
[14] = tested on: NCI-H226
[15] = tested on: SNB-75
[16] = tested on: DLD-1
[17] = tested on: SW-620
[18] = tested on: MDA-N
[19] = tested on: SF-268
[20] = tested on: MDA-MB-231
[21] = tested on: HOP-18
[22] = tested on: SR
[23] = tested on: SK-MEL-28
[24] = tested on: EKVX
[25] = tested on: KM-20L2
[26] = tested on: DMS-273
[27] = tested on: A549
[28] = tested on: RXF 631
[29] = tested on: COLO 205
[30] = tested on: BT-549
[31] = tested on: SF-295
[32] = tested on: CCRF-CEM
[33] = tested on: MOLT-4
[34] = tested on: UO-31
[35] = tested on: HOP-92
[36] = tested on: MDA-MB-435
[37] = tested on: UACC-257
[38] = tested on: PC-3
[39] = tested on: K562
[40] = tested on: Malme-3M
[41] = tested on: SN12C
[42] = tested on: HT-29
[43] = tested on: LOX IMVI
[44] = tested on: OVCAR-3
[45] = tested on: SF-539
[46] = tested on: M19-MEL
[47] = tested on: DU-145
[48] = tested on: OVCAR-5
[49] = tested on: LXFL 529
[50] = tested on: M14
[51] = tested on: TK-10
[52] = tested on: IGROV-1
[53] = tested on: HOP-62
[54] = tested on: SNB-19
[55] = tested on: XF498
[56] = tested on: UACC-62
[57] = tested on: NCI-H23
[58] = tested on: T47D
[59] = tested on: HCC 2998
[60] = tested on: SNB-78
[61] = tested on: SK-OV-3
[62] = tested on: HCT-15
[63] = tested on: SK-MEL-5
[64] = tested on: A498
[65] = tested on: OVCAR-4
[66] = tested on: Hs-578T
[67] = tested on: CAKI-1
[68] = tested on: NCI-H460
[69] = tested on: RPMI-8226

COC(=O)c1ccc2c(c1)C(NC(C)=O)CCc1cc(OC)c(OC)c(OC)c1-2 (centres undefined)
GI50 [1]: 41.6 nM (active)
GI50 [2]: 13.6 nM (active)
GI50 [3]: < 11.4 nM (active)
GI50 [4]: 20.8 nM (active)
GI50 [5]: 13.9 nM (active)
GI50 [6]: < 11.5 nM (active)
GI50 [7]: 15.4 nM (active)
GI50 [8]: < 12.6 nM (active)
GI50 [9]: 18 nM (active)
GI50 [10]: 18 nM (active)
GI50 [11]: 15 nM (active)
GI50 [12]: < 11.7 nM (active)
GI50 [13]: 61.2 nM (active)
GI50 [14]: 42.4 nM (active)
GI50 [15]: 12.9 nM (active)
GI50 [16]: 17.3 nM (active)
GI50 [17]: 12.9 nM (active)
GI50 [18]: 11.3 nM (active)
GI50 [19]: 13.9 nM (active)
GI50 [20]: < 20 nM (active)
GI50 [21]: > 40400 nM (inactive)
GI50 [22]: 12.3 nM (active)
GI50 [23]: 26.5 nM (active)
GI50 [24]: 4190 nM (inactive)
GI50 [25]: 11.8 nM (active)
GI50 [26]: < 10 nM (active)
GI50 [27]: 18 nM (active)
GI50 [28]: 14 nM (active)
GI50 [29]: 11.9 nM (active)
GI50 [30]: 104 nM (active)
GI50 [31]: 11.7 nM (active)
GI50 [32]: 13.3 nM (active)
GI50 [33]: 15.1 nM (active)
GI50 [34]: 72.1 nM (active)
GI50 [35]: 39.1 nM (active)
GI50 [36]: < 10 nM (active)
GI50 [37]: 530 nM (active)
GI50 [38]: < 12.7 nM (active)
GI50 [39]: 12.8 nM (active)
GI50 [40]: 15 nM (active)
GI50 [41]: 22.3 nM (active)
GI50 [42]: 12.5 nM (active)
GI50 [43]: 14.9 nM (active)
GI50 [44]: < 11.6 nM (active)
GI50 [45]: 12.4 nM (active)
GI50 [46]: 23.5 nM (active)
GI50 [47]: 14 nM (active)
GI50 [48]: 112 nM (active)
GI50 [49]: < 15.4 nM (active)
GI50 [50]: 15.3 nM (active)
GI50 [51]: 16900 nM (inactive)
GI50 [52]: 16.3 nM (active)
GI50 [53]: 15.8 nM (active)
GI50 [54]: 18.3 nM (active)
GI50 [55]: 60 nM (active)
GI50 [56]: 13.1 nM (active)
GI50 [57]: 13.6 nM (active)
GI50 [58]: > 100000 nM (inactive)
GI50 [59]: 32.7 nM (active)
GI50 [60]: < 15.2 nM (active)
GI50 [61]: 18.8 nM (active)
GI50 [62]: 36.6 nM
GI50 [63]: 13 nM (active)
GI50 [64]: 13.3 nM (active)
GI50 [65]: 11900 nM (inactive)
GI50 [66]: 12.2 nM (active)
GI50 [67]: 17.7 nM (active)
GI50 [68]: 25.9 nM (active)
GI50 [69]: 15.1 nM (active)

From ChEMBL document CHEMBL1201862, “PubChem BioAssay data set” (2004)
